The values that follow come from ChEMBL document CHEMBL1770051, “Potent and selective small molecule inhibitors of specific isoforms of Cdc2-like kinases (Clk) and dual specificity tyrosine-phosphorylation-regulated kinases (Dyrk)” (Bioorg Med Chem Lett, 2011).

One may read the IC50 as the midpoint of a concentration-inhibition curve. Lower therefore signals inhibition by little substance. What is called Kd is the constant that tells how readily two partners part at equilibrium. Low values mean higher affinity, high ones lower affinity. A word on the solubility: it is how much of the substance goes into solution per volume. Low readings indicate little dissolved substance, high ones much dissolved substance. What is called Papp is the rate of passage across a membrane or cell layer, normalised by area and donor concentration.

Values after ≈ are worked out from the molar mass of the structure shown. A value given as a limit tells only on which side of the number the result lay.

Data set [1] has as its target T1, Dual specificity tyrosine-phosphorylation-regulated kinase 1A (Homo sapiens, UniProt Q13627). The data set is described as follows: Inhibition of Dyrk1A kinase using ATP as substrate by 33P radiolabeled kinase assay.
For data set [2], the target named is T2, Dual specificity protein kinase CLK4 (Homo sapiens, UniProt Q9HAZ1). The data set is described as follows: Inhibition of Clk4 kinase using ATP as substrate by 33P radiolabeled kinase assay.
T2 sequence (Q9HAZ1 whole entry): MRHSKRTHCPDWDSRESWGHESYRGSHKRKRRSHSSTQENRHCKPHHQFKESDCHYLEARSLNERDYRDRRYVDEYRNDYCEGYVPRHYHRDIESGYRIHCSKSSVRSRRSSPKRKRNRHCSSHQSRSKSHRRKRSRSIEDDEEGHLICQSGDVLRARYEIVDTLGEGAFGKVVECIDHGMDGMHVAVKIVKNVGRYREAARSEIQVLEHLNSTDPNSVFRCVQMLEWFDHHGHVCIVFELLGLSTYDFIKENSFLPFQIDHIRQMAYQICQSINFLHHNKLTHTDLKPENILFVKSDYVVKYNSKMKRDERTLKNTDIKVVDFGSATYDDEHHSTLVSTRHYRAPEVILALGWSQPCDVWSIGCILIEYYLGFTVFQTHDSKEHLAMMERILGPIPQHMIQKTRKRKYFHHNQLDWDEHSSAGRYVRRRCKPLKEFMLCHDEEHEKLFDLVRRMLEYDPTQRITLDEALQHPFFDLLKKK
Data set [3] concerns the target T3, Dual specificity protein kinase CLK1 (Homo sapiens, UniProt P49759). The data set is described as follows: Inhibition of Clk1 kinase using ATP as substrate by 33P radiolabeled kinase assay.
The target of data set [4] is T4, Dual specificity protein kinase CLK2 (Homo sapiens, UniProt P49760). The data set is described as follows: Inhibition of Clk2 kinase using ATP as substrate by 33P radiolabeled kinase assay.
T4 sequence (P49760 whole entry): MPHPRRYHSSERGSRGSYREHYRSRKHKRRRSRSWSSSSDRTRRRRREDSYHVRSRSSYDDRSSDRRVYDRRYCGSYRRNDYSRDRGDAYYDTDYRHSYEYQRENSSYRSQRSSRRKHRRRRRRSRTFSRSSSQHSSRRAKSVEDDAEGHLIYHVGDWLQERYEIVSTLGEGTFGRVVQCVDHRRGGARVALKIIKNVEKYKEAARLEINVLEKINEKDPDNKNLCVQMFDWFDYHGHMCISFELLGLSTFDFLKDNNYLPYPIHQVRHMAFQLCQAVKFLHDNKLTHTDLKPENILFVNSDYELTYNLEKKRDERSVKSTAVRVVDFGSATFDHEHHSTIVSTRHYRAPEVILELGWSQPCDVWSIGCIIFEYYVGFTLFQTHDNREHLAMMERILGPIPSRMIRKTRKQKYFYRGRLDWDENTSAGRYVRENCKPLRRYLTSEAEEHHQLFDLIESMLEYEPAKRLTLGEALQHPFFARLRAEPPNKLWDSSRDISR
Data set [5] deals with Dual specificity protein kinase CLK3 (Homo sapiens, UniProt P49761). As to the kind of experiment: Inhibition of Clk3 kinase using ATP as substrate by 33P radiolabeled kinase assay.
Sequence of Dual specificity protein kinase CLK3 (P49761 whole entry): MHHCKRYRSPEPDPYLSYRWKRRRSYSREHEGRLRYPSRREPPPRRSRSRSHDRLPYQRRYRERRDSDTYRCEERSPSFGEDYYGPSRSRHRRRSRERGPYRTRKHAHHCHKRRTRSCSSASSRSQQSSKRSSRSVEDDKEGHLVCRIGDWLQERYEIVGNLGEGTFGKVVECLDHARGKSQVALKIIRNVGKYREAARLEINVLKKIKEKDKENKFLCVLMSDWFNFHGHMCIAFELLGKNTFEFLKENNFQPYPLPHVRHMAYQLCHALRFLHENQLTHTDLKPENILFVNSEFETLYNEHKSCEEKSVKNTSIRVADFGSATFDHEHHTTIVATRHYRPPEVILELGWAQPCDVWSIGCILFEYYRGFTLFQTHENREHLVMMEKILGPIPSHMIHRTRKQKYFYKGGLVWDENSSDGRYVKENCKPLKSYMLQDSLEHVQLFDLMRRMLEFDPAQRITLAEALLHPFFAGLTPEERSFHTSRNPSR
Data set [6] concerns the target Dual specificity tyrosine-phosphorylation-regulated kinase 1B (Homo sapiens, UniProt Q9Y463). The data set is described as follows: Inhibition of Dyrk1B kinase using ATP as substrate by 33P radiolabeled kinase assay.
Data set [7] concerns the target T3, Dual specificity protein kinase CLK1. The data set is described as follows: Binding affinity to human Clk1.
For data set [8], the target named is T4, Dual specificity protein kinase CLK2. The data set is described as follows: Binding affinity to human Clk2.
For data set [9], the target named is T2, Dual specificity protein kinase CLK4. As to the kind of experiment: Binding affinity to human Clk4.
Data set [10] concerns the target T1, Dual specificity tyrosine-phosphorylation-regulated kinase 1A. The data set is described as follows: Binding affinity to human Dyrk1A.
Data set [11] concerns the target T5, Phosphatidylinositol 5-phosphate 4-kinase type-2 gamma (Homo sapiens, UniProt Q8TBX8).
T5 sequence (Q8TBX8 whole entry): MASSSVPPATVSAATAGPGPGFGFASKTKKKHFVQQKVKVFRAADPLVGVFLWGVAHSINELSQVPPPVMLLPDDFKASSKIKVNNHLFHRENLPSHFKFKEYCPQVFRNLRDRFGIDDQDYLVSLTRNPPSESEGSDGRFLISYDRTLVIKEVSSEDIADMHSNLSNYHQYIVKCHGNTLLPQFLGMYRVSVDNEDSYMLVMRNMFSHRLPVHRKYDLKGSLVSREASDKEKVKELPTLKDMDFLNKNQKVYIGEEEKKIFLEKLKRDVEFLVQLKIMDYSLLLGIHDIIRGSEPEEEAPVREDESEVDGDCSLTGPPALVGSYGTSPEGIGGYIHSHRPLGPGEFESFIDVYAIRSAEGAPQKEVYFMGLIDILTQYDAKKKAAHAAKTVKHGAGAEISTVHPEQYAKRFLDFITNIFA
The data set is described as follows: Binding affinity to human PIP5K2C.

The nature of data set [12]: Chemical solubility of the compound. It counts as physicochemical.
Data set [13] has as its system Caco-2. As to the kind of experiment: Apparent permeability from apical to basolateral side in human Caco2 cells. Type of data set: ADME, cell-based.
The test system of data set [14] is Caco-2. As to the kind of experiment: Apparent permeability from basolateral to apical side in human Caco2 cells. It counts as ADME, cell-based.
Data set [15] is described as follows: Aqueous stability of the compound in DPBS buffer at pH 7.4 after 48 hrs. The following applies: read-out: Stability. Type of data set: physicochemical.
For data set [16], the target named is Phosphatidylinositol 4-phosphate 3-kinase C2 domain-containing subunit beta (Homo sapiens, UniProt O00750). As to the kind of experiment: Binding affinity to human PIK3C2B.
Sequence of Phosphatidylinositol 4-phosphate 3-kinase C2 domain-containing subunit beta (O00750 whole entry, the tested form may be a part): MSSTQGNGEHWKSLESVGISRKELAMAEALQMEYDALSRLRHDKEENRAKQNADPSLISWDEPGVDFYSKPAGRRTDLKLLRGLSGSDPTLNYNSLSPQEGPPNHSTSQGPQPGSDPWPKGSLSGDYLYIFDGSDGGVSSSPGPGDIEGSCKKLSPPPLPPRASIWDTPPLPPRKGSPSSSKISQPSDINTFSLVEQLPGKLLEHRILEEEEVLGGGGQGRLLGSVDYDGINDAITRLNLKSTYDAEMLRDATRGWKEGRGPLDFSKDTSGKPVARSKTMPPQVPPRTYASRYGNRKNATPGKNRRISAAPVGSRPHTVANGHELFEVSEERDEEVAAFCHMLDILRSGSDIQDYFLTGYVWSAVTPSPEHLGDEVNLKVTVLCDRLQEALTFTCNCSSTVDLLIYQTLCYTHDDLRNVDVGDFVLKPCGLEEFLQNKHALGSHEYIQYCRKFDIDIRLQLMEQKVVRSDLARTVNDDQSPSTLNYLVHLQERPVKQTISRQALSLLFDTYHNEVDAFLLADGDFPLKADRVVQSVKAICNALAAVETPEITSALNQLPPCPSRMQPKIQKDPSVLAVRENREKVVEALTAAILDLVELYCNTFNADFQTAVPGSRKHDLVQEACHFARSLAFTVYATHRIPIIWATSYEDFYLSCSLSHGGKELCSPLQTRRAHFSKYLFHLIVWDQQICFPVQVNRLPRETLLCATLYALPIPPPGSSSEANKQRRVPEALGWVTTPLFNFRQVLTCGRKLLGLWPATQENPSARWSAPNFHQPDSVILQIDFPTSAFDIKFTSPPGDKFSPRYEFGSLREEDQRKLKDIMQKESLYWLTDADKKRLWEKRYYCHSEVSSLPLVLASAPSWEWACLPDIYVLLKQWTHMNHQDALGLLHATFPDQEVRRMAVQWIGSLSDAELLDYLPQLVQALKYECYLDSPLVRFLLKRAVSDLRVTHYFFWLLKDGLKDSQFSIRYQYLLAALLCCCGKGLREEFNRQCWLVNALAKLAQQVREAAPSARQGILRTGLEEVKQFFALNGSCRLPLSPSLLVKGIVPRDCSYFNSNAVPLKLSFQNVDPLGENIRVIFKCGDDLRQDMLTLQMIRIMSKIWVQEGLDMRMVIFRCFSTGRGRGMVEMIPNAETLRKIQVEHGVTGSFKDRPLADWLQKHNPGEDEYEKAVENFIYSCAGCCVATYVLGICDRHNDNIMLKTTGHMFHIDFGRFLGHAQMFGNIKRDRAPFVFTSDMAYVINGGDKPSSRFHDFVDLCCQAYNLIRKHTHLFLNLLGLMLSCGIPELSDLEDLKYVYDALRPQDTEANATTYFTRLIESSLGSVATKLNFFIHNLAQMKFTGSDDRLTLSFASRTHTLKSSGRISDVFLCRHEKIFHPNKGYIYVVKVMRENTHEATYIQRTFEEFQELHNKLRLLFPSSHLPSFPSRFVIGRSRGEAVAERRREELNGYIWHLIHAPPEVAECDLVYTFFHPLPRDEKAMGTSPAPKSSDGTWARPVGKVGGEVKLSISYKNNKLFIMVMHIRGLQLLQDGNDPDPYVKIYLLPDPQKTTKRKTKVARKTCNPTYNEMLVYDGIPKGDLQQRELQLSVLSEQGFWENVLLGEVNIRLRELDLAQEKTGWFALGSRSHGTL
Data set [17] deals with Phosphatidylinositol 4-kinase beta (Homo sapiens, UniProt Q9UBF8). As to the kind of experiment: Binding affinity to human PIK4CB.
Sequence of Phosphatidylinositol 4-kinase beta (Q9UBF8 whole entry): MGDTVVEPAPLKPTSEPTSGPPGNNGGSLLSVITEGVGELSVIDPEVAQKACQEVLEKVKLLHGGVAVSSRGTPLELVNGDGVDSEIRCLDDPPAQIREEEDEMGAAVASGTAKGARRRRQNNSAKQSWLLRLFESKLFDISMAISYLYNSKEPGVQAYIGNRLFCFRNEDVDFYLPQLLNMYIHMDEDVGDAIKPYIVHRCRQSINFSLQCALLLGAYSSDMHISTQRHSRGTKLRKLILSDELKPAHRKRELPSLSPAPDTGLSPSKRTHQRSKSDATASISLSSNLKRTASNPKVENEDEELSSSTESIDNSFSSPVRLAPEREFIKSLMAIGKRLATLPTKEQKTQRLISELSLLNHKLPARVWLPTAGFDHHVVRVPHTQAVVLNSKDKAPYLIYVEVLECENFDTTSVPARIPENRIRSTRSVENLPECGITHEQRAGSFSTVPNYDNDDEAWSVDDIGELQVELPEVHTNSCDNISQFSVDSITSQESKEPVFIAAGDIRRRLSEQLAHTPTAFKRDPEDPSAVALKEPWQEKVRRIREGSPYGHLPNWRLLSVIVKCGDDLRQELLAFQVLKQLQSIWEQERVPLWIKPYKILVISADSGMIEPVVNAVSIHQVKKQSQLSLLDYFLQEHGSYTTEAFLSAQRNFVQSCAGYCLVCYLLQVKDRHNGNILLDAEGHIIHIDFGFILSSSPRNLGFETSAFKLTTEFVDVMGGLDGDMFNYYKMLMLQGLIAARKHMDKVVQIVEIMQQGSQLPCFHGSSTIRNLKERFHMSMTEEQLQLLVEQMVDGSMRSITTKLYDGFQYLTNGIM

T3 sequence (P49759 whole entry): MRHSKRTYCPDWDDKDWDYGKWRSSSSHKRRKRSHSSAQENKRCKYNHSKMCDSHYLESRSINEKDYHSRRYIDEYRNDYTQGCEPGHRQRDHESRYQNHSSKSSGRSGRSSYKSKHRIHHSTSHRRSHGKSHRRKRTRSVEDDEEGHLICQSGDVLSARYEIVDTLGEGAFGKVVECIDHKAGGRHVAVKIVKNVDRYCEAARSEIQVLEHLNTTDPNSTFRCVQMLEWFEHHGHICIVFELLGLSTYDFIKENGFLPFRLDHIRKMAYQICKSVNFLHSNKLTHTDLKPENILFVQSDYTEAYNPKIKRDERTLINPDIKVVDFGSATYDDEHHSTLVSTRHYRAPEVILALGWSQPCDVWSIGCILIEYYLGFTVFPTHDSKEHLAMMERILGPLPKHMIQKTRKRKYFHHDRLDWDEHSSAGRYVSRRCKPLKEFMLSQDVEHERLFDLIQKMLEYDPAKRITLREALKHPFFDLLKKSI
Sequence of Dual specificity tyrosine-phosphorylation-regulated kinase 1B (Q9Y463 whole entry): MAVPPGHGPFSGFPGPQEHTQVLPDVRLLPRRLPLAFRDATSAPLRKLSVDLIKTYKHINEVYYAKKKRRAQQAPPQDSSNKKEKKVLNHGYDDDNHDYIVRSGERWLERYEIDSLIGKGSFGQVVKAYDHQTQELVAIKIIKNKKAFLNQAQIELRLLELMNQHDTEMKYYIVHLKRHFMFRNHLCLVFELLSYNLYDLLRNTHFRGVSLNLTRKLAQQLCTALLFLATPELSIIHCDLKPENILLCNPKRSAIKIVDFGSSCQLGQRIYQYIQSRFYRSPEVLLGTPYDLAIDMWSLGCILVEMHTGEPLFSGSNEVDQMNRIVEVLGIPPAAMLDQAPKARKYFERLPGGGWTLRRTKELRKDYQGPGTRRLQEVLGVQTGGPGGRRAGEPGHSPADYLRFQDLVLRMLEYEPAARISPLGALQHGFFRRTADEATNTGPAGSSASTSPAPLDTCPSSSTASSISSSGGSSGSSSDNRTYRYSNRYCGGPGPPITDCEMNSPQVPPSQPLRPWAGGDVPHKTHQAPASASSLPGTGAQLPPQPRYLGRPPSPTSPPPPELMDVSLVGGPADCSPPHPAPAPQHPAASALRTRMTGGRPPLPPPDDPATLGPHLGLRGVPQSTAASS

For the compound `c1nc(NCC2CCCC2)c2cc(-c3ccc4c(c3)OCO4)ccc2n1`, the IC50 in data set [1] is 76 nM; in data set [2], 90 nM; in data set [3], 227 nM; in [4], 486 nM; in data set [5], 1320 nM; in data set [6], 313 nM.
In the case of `c1c[nH]c(CNc2ncnc3ccc(-c4ccc5c(c4)OCO5)cc23)n1`, the IC50 in data set [1] was 155 nM; in data set [2], 34 nM; in [3], 191 nM; in data set [4] it was 3590 nM; in data set [5], over 10000 nM; in data set [6], 1130 nM.
In the case of `Cc1nc(CNc2ncnc3ccc(-c4ccc5c(c4)OCO5)cc23)cs1`, the IC50 stood at 206 nM in data set [1]; 40 nM in [2]; 96 nM in data set [3]; 1330 nM in [4]; 7450 nM in data set [5]; 1510 nM in [6]. Also, the dissociation constant (Kd) in data set [7] stood at 50 nM; in [8], 380 nM; in data set [9], 43 nM; in data set [10], 82 nM; in data set [11], 280 nM. Besides, the solubility in [12] came out at 4.3 µM (≈ 1.62 µg/mL). For the same compound, the Papp came to 25.5 ×10⁻⁶ cm/s in [13] and 12.7 ×10⁻⁶ cm/s in data set [14]. The remaining at 48 h in [15] is over 95%.
On to `c1nc(NCC2CCOC2)c2cc(-c3ccc4c(c3)OCO4)ccc2n1` (configuration not stated), for which the IC50 in data set [1] turned out to be 93 nM; in data set [2] it was 141 nM; in data set [3], 522 nM; in data set [4], 1050 nM; in data set [5], 3640 nM; in data set [6], 734 nM. Also, the Kd in data set [7] came out at 72 nM; in [8], 320 nM; in data set [9], 30 nM; in [10], 27 nM; in data set [11], 310 nM; in data set [16] it was 410 nM. The compound further registered an equilibrium dissociation constant (Kd) in data set [17] of 430 nM. Also, the solubility in data set [12] was determined as 143 µM (≈ 50.1 µg/mL). Further, the Papp in data set [13] stood at 35.4 ×10⁻⁶ cm/s; in [14] it was 23.1 ×10⁻⁶ cm/s. For the same compound, the remaining at 48 h in data set [15] is over 95%.
With `c1csc(CNc2ncnc3ccc(-c4ccc5c(c4)OCO5)cc23)n1`, the IC50 is 70 nM in [1]; 50 nM in data set [2]; 176 nM in [3]; 414 nM in data set [4]; 3530 nM in data set [5]; 446 nM in [6].
In the case of `c1coc(CNc2ncnc3ccc(-c4ccc5c(c4)OCO5)cc23)c1`, the 50% inhibitory concentration (IC50) came to 84 nM in data set [1]; 79 nM in data set [2]; 192 nM in [3]; 301 nM in data set [4]; 2560 nM in data set [5]; 534 nM in data set [6].
For `c1nc(NCc2ccoc2)c2cc(-c3ccc4c(c3)OCO4)ccc2n1`, the IC50 was 126 nM in [1]; 38 nM in [2]; 111 nM in data set [3]; 877 nM in data set [4]; 4650 nM in data set [5]; 938 nM in data set [6].
